Laboratory results reported in US9777001B2 (priority 2014, dated 2017).
Where a name gives a salt, the structure may show the parent alone.

Key:
[1] = target: human plasma kallikrein (Homo sapiens, UniProt P03952); test: biochemical; settings: purified human plasma kallikrein, substrate S-2302, sodium phosphate buffer pH 7.5
[2] = target: human Factor XIa (Homo sapiens, UniProt P03951); test: biochemical; settings: purified human Factor XIa, substrate S-2366, HEPES buffer pH 7.4
Chain of human Factor XIa (P03951 388-625 limits assumed): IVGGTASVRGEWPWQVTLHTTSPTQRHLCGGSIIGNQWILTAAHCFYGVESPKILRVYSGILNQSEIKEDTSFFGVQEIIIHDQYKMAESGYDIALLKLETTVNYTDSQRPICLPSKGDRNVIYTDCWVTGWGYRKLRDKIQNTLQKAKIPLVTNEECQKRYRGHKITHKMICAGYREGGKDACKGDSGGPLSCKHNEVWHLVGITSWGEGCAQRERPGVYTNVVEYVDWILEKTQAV
Chain of human Factor XIa (P03951 19-387 partner limits assumed): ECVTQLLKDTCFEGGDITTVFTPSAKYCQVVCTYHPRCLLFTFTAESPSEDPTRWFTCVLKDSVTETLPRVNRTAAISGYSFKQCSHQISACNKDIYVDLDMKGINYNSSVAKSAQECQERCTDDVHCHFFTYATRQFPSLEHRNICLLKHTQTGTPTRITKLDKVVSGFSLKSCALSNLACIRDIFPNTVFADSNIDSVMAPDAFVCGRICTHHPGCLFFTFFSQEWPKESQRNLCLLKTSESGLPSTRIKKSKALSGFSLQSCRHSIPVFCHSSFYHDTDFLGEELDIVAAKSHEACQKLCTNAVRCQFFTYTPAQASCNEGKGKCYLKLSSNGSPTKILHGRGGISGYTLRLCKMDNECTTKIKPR

Chain of human plasma kallikrein (P03952 391-638 limits assumed): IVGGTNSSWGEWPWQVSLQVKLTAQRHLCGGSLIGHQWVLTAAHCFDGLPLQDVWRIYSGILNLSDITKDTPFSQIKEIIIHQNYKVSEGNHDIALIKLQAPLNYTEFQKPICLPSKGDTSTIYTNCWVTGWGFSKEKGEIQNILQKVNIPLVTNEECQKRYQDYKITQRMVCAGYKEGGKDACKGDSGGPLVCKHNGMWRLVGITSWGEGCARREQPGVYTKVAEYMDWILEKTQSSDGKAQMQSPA
Chain of human plasma kallikrein (P03952 20-390 partner limits assumed): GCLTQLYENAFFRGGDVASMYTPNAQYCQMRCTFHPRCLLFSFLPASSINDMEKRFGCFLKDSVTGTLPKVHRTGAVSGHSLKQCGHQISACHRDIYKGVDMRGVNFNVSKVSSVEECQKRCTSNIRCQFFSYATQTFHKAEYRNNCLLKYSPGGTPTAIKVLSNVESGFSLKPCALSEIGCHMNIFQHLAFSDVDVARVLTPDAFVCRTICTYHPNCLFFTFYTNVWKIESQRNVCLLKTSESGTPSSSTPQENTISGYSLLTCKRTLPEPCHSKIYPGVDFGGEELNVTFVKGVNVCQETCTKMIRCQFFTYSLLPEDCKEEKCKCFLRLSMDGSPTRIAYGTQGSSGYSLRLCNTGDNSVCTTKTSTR

Ki [1] | Ki [2] | SMILES
19 nM | 0.22 nM | C[C@@H]1CCC[C@H](n2cnc(-c3cc(Cl)ccc3-n3cc(Cl)nn3)cc2=O)c2ccnc(c2)-c2ccc(C#N)cc2NC1=O [Example 112, (10R,14S)-14-{4-[5-chloro-2-(4-chloro-1H-1,2,3-triazol-1-yl)phenyl]-6-oxo-1,6-dihydropyrimidin-1-yl}-10-methyl-9-oxo-8,18-diazatricyclo [13.3.1.0^2,7]nonadeca-1(19),2(7),3,5,15,17-hexaene-5-carbonitrile]
7 nM | 1 nM | C[C@@H]1CCC[C@H](n2cnc(-c3c(-n4cc(Cl)nn4)ccc(Cl)c3F)cc2=O)c2cc(ccn2)-c2cc(F)ccc2NC1=O [Example 142, (10R,14S)-14-{4-[3-chloro-6-(4-chloro-1H-1,2,3-triazol-1-yl)-2-fluorophenyl]-6-oxo-1,6-dihydropyrimidin-1-yl}-4-fluoro-10-methyl-8,16-diazatricyclo [13.3.1.0^2,7]nonadeca-1(19),2(7),3,5,15,17-hexaen-9-one trifluoroacetate]
100 nM | 1.6 nM | C[C@H]1CCC[C@H](n2cnc(-c3cc(Cl)ccc3-n3cc(C(F)(F)F)nn3)cc2=O)c2ccnc(c2)-c2cc(F)ccc2NC1=O [Example 145, (10S,14S)-14-(4-{5-chloro-2-[4-(trifluoromethyl)-1H-1,2,3-triazol-1-yl]phenyl}-6-oxo-1,6-dihydropyrimidin-1-yl)-4-fluoro-10-methyl-8,18-diazatricyclo[13.3.1.0^2,7]nonadeca-1(19),2,4,6,15,17-hexaen-9-one]
